This note sets out measurements from patent US8759512B2, “Methods of preparation of macrocyclic compounds” (University of Florida Research Foundation, Inc., priority 2008, dated 2014).

The subject of one data set is NIH3T3 cells. The format is cell-based. As to conditions: NIH3T3, 48 h, MTT. As to the method: Cell culture medium was purchased from Invitrogen and fetal bovine serum (FBS) from Hyclone. Cells were propagated and maintained in DMEM medium (high glucose) supplemented with 10% FBS at 37° C. humidified air and 5% CO2.
Cells suspended in DMEM containing 10% FBS were plated in 96-well plates (MDA-MB-231: 12,000 cells; NMuMG: 5,000 cells; U2OS: 5,000 cells; HT29: 10,000 cells; IMR-32: 30,000 cells; NIH3T3: 5,000 cells) incubated (37° C., 5% CO2) and 24 h later treated with various concentrations of compound 21 or solvent control (1% EtOH). After another 48 h of incubation, cell viability was measured using MTT according to manufacturer's instructions (Promega).
MDA-MB-231 and NMuMG cells were also treated with paclitaxel (in DMSO), actinomycin D (in DMSO) and doxorubicin (in H2O) and corresponding solvent control (1%) in the same manner. GI50 and LC50 values were calculated as previously described (K. D. Paull, E. Hamel, L. Malspeis, In Cancer Chemotherapeutic Agents, W. E. Foye, Ed., American Chemical Society, Washington, D.C., 1995, pp. 10-11).
[formula] [T=absorbance in treated wells (48 h); T0=absorbance at time zero; C=absorbance in control wells (48 h)]

The next data set deals with HCT-116 cells. As to the kind of experiment: HCT-116 growth inhibition. Type of data set: cell-based.
Data set [1] has as its system HeLa nuclear extract HDACs (class I HDACs 1, 2, and 3). As to the kind of experiment: HeLa nuclear extract HDAC inhibition. The format is biochemical. The conditions noted are these: HeLa cell nuclear protein extract. The text has this: Largazole (21) inhibited HDAC activity from a HeLa cell nuclear protein extract rich in class I HDACs 1, 2, and 3 (BIOMOL); however, it is possible that the thioester is cleaved under assay conditions. To investigate that thiol 29 is a reactive species, we liberated 29 from the acetyl analog 28 of largazole (21) and measured enzymatic activity directly; thiol […] inhibited the HDACs in the nuclear extract of HeLa cells with a similar IC50 value (Table 3).

The next data set deals with HDAC. In words: HCT-116 HDAC cellular assay (Fluor de Lys substrate). Type of data set: cell-based. The conditions noted are these: HCT-116, 8 h, fluorogenic HDAC substrate.

As to `CCCCCCCC(=O)SCC/C=C/[C@@H]1CC(=O)NCc2nc(cs2)C2=N[C@@](C)(CS2)C(=O)N[C@@H](C(C)C)C(=O)O1` [Compound 21, Largazole], the “toxicity (cytotoxicity)” value in the data set on NIH3T3 cells was “no apparent toxicity”.
With `CC(=O)SCC/C=C/[C@@H]1CC(=O)NCc2nc(cs2)C2=N[C@@](C)(CS2)C(=O)N[C@@H](C(C)C)C(=O)O1` [Compound 28], the GI50 in the data set on HCT-116 cells was 0.033 ± 0.002 µM. The IC50 in data set [1] was found to be 0.052 ± 0.027 µM; in the data set on HDAC, 0.05 ± 0.018 µM.

Broadly, the GI50 is the concentration giving 50% growth inhibition. High values mean lower sensitivity of the cells, low ones greater sensitivity of the cells. Broadly, the IC50 is the midpoint of a concentration-inhibition curve. A lower IC50 goes with inhibition by little substance.
